Data: ChEMBL document CHEMBL1139210, “9,19-cyclolanostane derivatives from the roots of Actaea pachypoda” (J Nat Prod, 2007)
The source made the active and inactive calls. No cut-off for these calls is given here.

How the values were obtained:
[1] = (§1) Inhibition of activation of human complement
Vero = assay: Cytotoxicity against Vero cells upto 25 ug/mL by neutral red assay; format: cell-based; details: chlorocebus sabaeus
LLC-PK1 = assay: Cytotoxicity against LLC-PK1 cells upto 25 ug/mL by neutral red assay; format: cell-based, Sus scrofa; details: pig
[2] = target: T1, Estrogen receptor (Homo sapiens) (UniProt P03372); assay: Activity against human ERalpha expressed in recombinant yeast cells upto 500 ug/mL; format: cell-based
T1 sequence (whole entry): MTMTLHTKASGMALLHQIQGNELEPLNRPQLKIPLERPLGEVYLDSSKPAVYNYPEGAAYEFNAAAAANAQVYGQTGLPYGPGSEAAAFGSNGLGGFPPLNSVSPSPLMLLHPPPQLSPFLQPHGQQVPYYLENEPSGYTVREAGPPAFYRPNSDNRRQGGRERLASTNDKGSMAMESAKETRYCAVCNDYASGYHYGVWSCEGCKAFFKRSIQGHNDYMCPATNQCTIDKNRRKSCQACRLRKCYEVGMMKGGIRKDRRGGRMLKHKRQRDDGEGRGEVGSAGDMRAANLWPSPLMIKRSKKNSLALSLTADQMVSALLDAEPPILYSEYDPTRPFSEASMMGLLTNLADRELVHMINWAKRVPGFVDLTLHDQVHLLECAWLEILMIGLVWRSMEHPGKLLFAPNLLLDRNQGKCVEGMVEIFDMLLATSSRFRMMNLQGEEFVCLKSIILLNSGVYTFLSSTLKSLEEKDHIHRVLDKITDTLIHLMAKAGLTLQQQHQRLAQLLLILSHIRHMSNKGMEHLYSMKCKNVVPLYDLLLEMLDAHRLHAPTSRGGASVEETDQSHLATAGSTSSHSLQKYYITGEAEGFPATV

SK-OV-3 = assay: Cytotoxicity against SKOV3 cells upto 25 ug/mL by neutral red assay; format: cell-based; details: human
Homo sapiens = species on record: Homo sapiens; assay: as §1
HL-60 = assay: Antioxidant activity in HL60 cells by DCFH-DA method upto 20ug/mL; format: functional, cell-based; details: Homo sapiens
BT-549 = assay: Cytotoxicity against BT549 cells upto 25 ug/mL by neutral red assay; format: cell-based; details: human
SK-MEL = assay: Cytotoxicity against SK-MEL cells upto 25 ug/mL by neutral red assay; format: cell-based; details: human
KB = assay: Cytotoxicity against KB cells upto 25 ug/mL by neutral red assay; format: cell-based; details: human

| Structure (SMILES) | IC50 [1] | Activity (Vero) | Activity (LLC-PK1) | Activity [2] | Activity (SK-OV-3) | Activity (Homo sapiens) | Activity (HL-60) | Activity (BT-549) | Activity (SK-MEL) | Activity (KB) |
| --- | --- | --- | --- | --- | --- | --- | --- | --- | --- | --- |
| C[C@H]1[C@H](C)CC[C@]2(C(=O)O)CC[C@]3(C)C(=CC[C@@H]4[C@@]5(C)CC[C@H](O)C(C)(C)[C@@H]5CC[C@]43C)[C@H]12 [URSOLIC ACID] | 55 µM | – | – | – | – | – | – | – | – | – |
| CC(=O)O[C@@H]1C[C@@]23C[C@@]24CC[C@H](O[C@@H]2OC[C@@H](O)[C@H](O)[C@H]2O)C(C)(C)[C@@H]4CC[C@H]3[C@]2(C)C[C@@H]3O[C@@]4(C[C@@H](C)[C@@H]3[C@@]12C)OC[C@]1(C)O[C@H]41 | – | Not Active | Not Active | inactive | Not Active | inactive | inactive | Not Active | Not Active | Not Active |
| C[C@H]1[C@H]2[C@H](C[C@@]3(C)C4=CC[C@H]5C(C)(C)[C@@H](O[C@@H]6OC[C@@H](O)[C@H](O)[C@H]6O)CC[C@@]56C[C@@]46CC[C@]23C)O[C@@]2(O[C@H]2C(C)(C)O)[C@@H]1O | – | Not Active | Not Active | inactive | Not Active | inactive | inactive | Not Active | Not Active | Not Active |
| C[C@@H]1C[C@H]2O[C@@]3(O[C@@H]2C(C)(C)O)[C@H](O)[C@@]2(C)[C@@H]4CC[C@H]5C(C)(C)[C@@H](O[C@@H]6OC[C@@H](O)[C@H](O)[C@H]6O)CC[C@@]56C[C@@]46CC[C@]2(C)[C@@H]13 | – | Not Active | Not Active | inactive | Not Active | inactive | inactive | Not Active | Not Active | Not Active |
| CC1(C)CC[C@]2(C(=O)O)CC[C@]3(C)C(=CC[C@@H]4[C@@]5(C)CC[C@H](O)C(C)(C)[C@@H]5CC[C@]43C)[C@@H]2C1 [OLEANOLIC_ACID] | 78 µM | – | – | – | – | – | – | – | – | – |
| CC(=O)O[C@@H]1C[C@@]23C[C@@]24CC[C@H](O[C@@H]2OC[C@@H](O)[C@H](O)[C@H]2O)C(C)(C)[C@@H]4CC=C3[C@]2(C)C[C@@H]3O[C@@]4(O[C@H]4C(C)(C)O)[C@H](O)[C@@H](C)[C@@H]3[C@@]12C | – | Not Active | Not Active | inactive | Not Active | inactive | inactive | Not Active | Not Active | Not Active |
| CC(=O)O[C@H](C[C@@H](C)[C@H]1C(=O)[C@H](O)[C@@]2(C)[C@@H]3CC[C@H]4C(C)(C)[C@@H](O[C@@H]5OC[C@@H](O)[C@H](O)[C@H]5O)CC[C@@]45C[C@@]35CC[C@]12C)[C@H]1OC1(C)C | – | Not Active | Not Active | inactive | Not Active | inactive | inactive | Not Active | Not Active | Not Active |
| CC(=O)O[C@@H]1C[C@@]23C[C@@]24CC[C@H](O[C@@H]2OC[C@@H](O)[C@H](O)[C@H]2O)C(C)(C)[C@@H]4CCC3[C@]2(C)C[C@@H]3O[C@@]4(O[C@H]4C(C)(C)O)[C@H](O)[C@@H](C)[C@@H]3[C@@]12C (some centres undefined) | – | Not Active | Not Active | inactive | Not Active | inactive | inactive | Not Active | Not Active | Not Active |
| CC(=O)O[C@@H]1C[C@@]23C[C@@]24CC[C@H](O[C@@H]2OC[C@@H](O)[C@H](O)[C@H]2O)C(C)(C)[C@@H]4CC[C@H]3[C@]2(C)[C@@H](O)[C@]34O[C@H](C[C@@H](C)[C@@H]3[C@@]12C)[C@@H](C(C)(C)O)O4 | – | Not Active | Not Active | inactive | Not Active | inactive | inactive | Not Active | Not Active | Not Active |
| CC(=O)O[C@@H]1C[C@@]23C[C@@]24CC[C@H](O)C(C)(C)[C@@H]4CC[C@H]3[C@]2(C)[C@@H](O)[C@]34O[C@H](C[C@@H](C)[C@@H]3[C@@]12C)[C@@H](C(C)(C)O)O4 | 187 µM | Not Active | Not Active | inactive | Not Active | – | inactive | Not Active | Not Active | Not Active |
